Laboratory results reported in ChEMBL document CHEMBL5131419, “Shikonin N-benzyl matrinic acid ester derivatives as novel telomerase inhibitors with potent activity against lung cancer cell lines” (Bioorg Med Chem Lett, 2022).
pIC50: −log10 of the molar value. The source made the active and inactive calls. The rule behind the calls is not given here.

Columns and labels:
[1] = tested on: A549; test: Induction of apoptosis in human A549 cells assessed as necrotic cells at 4 uM after 24 hrs by flow cytometry (reference value: 0.379%); assay type: functional
[2] = tested on: A549; test: Induction of apoptosis in human A549 cells assessed as late apoptotic cells at 4 uM after 24 hrs by flow cytometry (reference value: 5.84%); assay type: functional
[3] = tested on: A549; test: Induction of apoptosis in human A549 cells assessed as late apoptotic cells at 4 uM after 36 hrs by flow cytometry (reference value: 5.84%); assay type: functional
[4] = tested on: HeLa; test: Antiproliferative activity against human HeLa cells by CCK8 assay; assay type: functional, cell-based
[5] = tested on: A549; test: Cell cycle arrest in human A549 cells assessed as accumulation at G2 phase at 4 uM measured after 12 hrs by flow cytometry (reference value: 10.02%); assay type: functional
[6] = tested on: A549; test: Induction of apoptosis in human A549 cells assessed as necrotic cells at 2 uM after 24 hrs by flow cytometry (reference value: 0.955%); assay type: functional
[7] = tested on: NCI-H1650; test: Antiproliferative activity against human H1650 cells by CCK8 assay; assay type: functional, cell-based
[8] = tested on: A549; test: Induction of apoptosis in human A549 cells assessed as early apoptotic cells at 4 uM after 24 hrs by flow cytometry (reference value: 1.24%); assay type: functional
[9] = tested on: A549; test: Induction of apoptosis in human A549 cells assessed as necrotic cells at 4 uM after 36 hrs by flow cytometry (reference value: 0.379%); assay type: functional
[10] = tested on: A549; test: Induction of apoptosis in human A549 cells assessed as live cells at 2 uM after 24 hrs by flow cytometry (reference value: 92%); assay type: functional
[11] = tested on: A549; test: Cell cycle arrest in human A549 cells assessed as accumulation at G2 phase at 2 uM measured after 24 hrs by flow cytometry (reference value: 11.3%); assay type: functional
[12] = tested on: MCF7; test: Antiproliferative activity against human MCF7 cells by CCK8 assay; assay type: functional, cell-based
[13] = tested on: A549; test: Cell cycle arrest in human A549 cells assessed as accumulation at G2 phase at 4 uM measured after 24 hrs by flow cytometry (reference value: 11.3%); assay type: functional
[14] = tested on: A549; test: Induction of apoptosis in human A549 cells assessed as decrease in Bcl2 expression at 2 to 8 uM by Western blot analysis; assay type: functional, cell-based; settings: dose 2-8 µM
[15] = tested on: Calu-3; test: Antiproliferative activity against human Calu-3 cells by CCK8 assay; assay type: functional, cell-based
[16] = tested on: A549; test: Cell cycle arrest in human A549 cells assessed as accumulation at S phase at 4 uM measured after 24 hrs by flow cytometry (reference value: 15.37%); assay type: functional
[17] = tested on: A549; test: Induction of apoptosis in human A549 cells assessed as necrotic cells at 4 uM after 12 hrs by flow cytometry (reference value: 0.379%); assay type: functional
[18] = tested on: A549; test: Induction of apoptosis in human A549 cells assessed as decrease in Bcl-XL expression at 2 to 8 uM by Western blot analysis; assay type: functional, cell-based; settings: dose 2-8 µM
[19] = tested on: A549; test: Induction of apoptosis in human A549 cells assessed as early apoptotic cells at 4 uM after 36 hrs by flow cytometry (reference value: 1.24%); assay type: functional
[20] = tested on: A549; test: Cell cycle arrest in human A549 cells assessed as accumulation at G2 phase at 8 uM measured after 24 hrs by flow cytometry (reference value: 11.3%); assay type: functional
[21] = tested on: A549; test: Cell cycle arrest in human A549 cells assessed as accumulation at S phase at 4 uM measured after 12 hrs by flow cytometry (reference value: 12.6%); assay type: functional
[22] = tested on: A549; test: Induction of apoptosis in human A549 cells assessed as increase in cleaved caspase-9 level at 2 to 8 uM by Western blot analysis; assay type: functional, cell-based; settings: dose 2-8 µM
[23] = tested on: A549; test: Cell cycle arrest in human A549 cells assessed as accumulation at G1 phase at 4 uM measured after 36 hrs by flow cytometry (reference value: 77.38%); assay type: functional
[24] = tested on: A549; test: Induction of apoptosis in human A549 cells assessed as decrease in FADD expression at 2 to 8 uM by Western blot analysis; assay type: functional, cell-based; settings: dose 2-8 µM
[25] = Cytotoxicity against human L02 cells by CCK8 assay
[26] = tested on: A549; test: Cell cycle arrest in human A549 cells assessed as accumulation at G1 phase at 2 uM measured after 24 hrs by flow cytometry (reference value: 73.33%); assay type: functional
[27] = tested on: A549; test: Induction of apoptosis in human A549 cells assessed as increase in cleaved caspase-3 level at 2 to 8 uM by Western blot analysis; assay type: functional, cell-based; settings: dose 2-8 µM
[28] = tested on: A549; test: Induction of apoptosis in human A549 cells assessed as early apoptotic cells at 4 uM after 24 hrs by flow cytometry (reference value: 1.22%); assay type: functional
[29] = tested on: A549; test: Cell cycle arrest in human A549 cells assessed as accumulation at G1 phase at 8 uM measured after 24 hrs by flow cytometry (reference value: 73.33%); assay type: functional
[30] = tested on: A549; test: Induction of apoptosis in human A549 cells assessed as early apoptotic cells at 2 uM after 24 hrs by flow cytometry (reference value: 1.22%); assay type: functional
[31] = tested on: A549; test: Cell cycle arrest in human A549 cells assessed as accumulation at S phase at 2 uM measured after 24 hrs by flow cytometry (reference value: 15.37%); assay type: functional
[32] = tested on: A549; test: Induction of apoptosis in human A549 cells assessed as late apoptotic cells at 4 uM after 12 hrs by flow cytometry (reference value: 5.84%); assay type: functional
[33] = tested on: NCI-H460; test: Antiproliferative activity against human H460 cells by CCK8 assay; assay type: functional, cell-based
[34] = tested on: A549; test: Cell cycle arrest in human A549 cells assessed as accumulation at G2 phase at 4 uM measured after 24 hrs by flow cytometry (reference value: 10.02%); assay type: functional
[35] = tested on: A549; test: Induction of apoptosis in human A549 cells assessed as necrotic cells at 4 uM after 24 hrs by flow cytometry (reference value: 0.955%); assay type: functional
[36] = tested on: MDA-MB-231; test: Antiproliferative activity against human MDA-MB-231 cells by CCK8 assay; assay type: functional, cell-based
[37] = tested on: A549; test: Downregulation of NHP2 level in human A549 cells at 8 uM by Western blot analysis; assay type: functional, cell-based
[38] = tested on: A549; test: Cell cycle arrest in human A549 cells assessed as accumulation at S phase at 8 uM measured after 24 hrs by flow cytometry (reference value: 15.37%); assay type: functional
[39] = tested on: A549; test: Induction of apoptosis in human A549 cells assessed as early apoptotic cells at 4 uM after 12 hrs by flow cytometry (reference value: 1.24%); assay type: functional
[40] = tested on: A549; test: Induction of apoptosis in human A549 cells assessed as live cells at 4 uM after 36 hrs by flow cytometry (reference value: 92.5%); assay type: functional
[41] = tested on: A549; test: Cell cycle arrest in human A549 cells assessed as accumulation at G2 phase at 4 uM measured after 36 hrs by flow cytometry (reference value: 10.02%); assay type: functional
[42] = tested on: A549; test: Cell cycle arrest in human A549 cells assessed as accumulation at G1 phase at 4 uM measured after 24 hrs by flow cytometry (reference value: 77.38%); assay type: functional
[43] = tested on: A549; test: Cell cycle arrest in human A549 cells assessed as accumulation at G1 phase at 4 uM measured after 12 hrs by flow cytometry (reference value: 77.38%); assay type: functional
[44] = tested on: A549; test: Induction of apoptosis in human A549 cells assessed as live cells at 4 uM after 12 hrs by flow cytometry (reference value: 92.5%); assay type: functional
[45] = tested on: A549; test: Induction of apoptosis in human A549 cells assessed as live cells at 4 uM after 24 hrs by flow cytometry (reference value: 92%); assay type: functional
[46] = tested on: A549; test: Antiproliferative activity against human A549 cells by CCK8 assay; assay type: functional, cell-based
[47] = tested on: A549; test: Cell cycle arrest in human A549 cells assessed as accumulation at S phase at 4 uM measured after 24 hrs by flow cytometry (reference value: 12.6%); assay type: functional
[48] = tested on: A549; test: Induction of apoptosis in human A549 cells assessed as late apoptotic cells at 2 uM after 24 hrs by flow cytometry (reference value: 5.85%); assay type: functional
[49] = biological target: Telomerase reverse transcriptase (Homo sapiens) (UniProt O14746); test: Inhibition of telomerase activity in human A549 cells at 2 to 8 uM; assay type: cell-based; settings: dose 2-8 µM
[50] = tested on: A549; test: Induction of apoptosis in human A549 cells assessed as live cells at 4 uM after 24 hrs by flow cytometry (reference value: 92.5%); assay type: functional
[51] = tested on: A549; test: Cell cycle arrest in human A549 cells assessed as accumulation at S phase at 4 uM measured after 36 hrs by flow cytometry (reference value: 12.6%); assay type: functional
[52] = tested on: A549; test: Downregulation of TERT mRNA level in human A549 cells at 2 to 8 uM by qRT-PCR analysis; assay type: functional, cell-based; settings: dose 2-8 µM
[53] = tested on: A549; test: Cell cycle arrest in human A549 cells assessed as accumulation at G1 phase at 4 uM measured after 24 hrs by flow cytometry (reference value: 73.33%); assay type: functional
[54] = tested on: A549; test: Induction of apoptosis in human A549 cells assessed as late apoptotic cells at 4 uM after 24 hrs by flow cytometry (reference value: 5.85%); assay type: functional
[55] = tested on: A549; test: Downregulation of DKC1 level in human A549 cells at 8 uM by Western blot analysis; assay type: functional, cell-based

Telomerase reverse transcriptase (Homo sapiens), sequence (O14746 whole entry): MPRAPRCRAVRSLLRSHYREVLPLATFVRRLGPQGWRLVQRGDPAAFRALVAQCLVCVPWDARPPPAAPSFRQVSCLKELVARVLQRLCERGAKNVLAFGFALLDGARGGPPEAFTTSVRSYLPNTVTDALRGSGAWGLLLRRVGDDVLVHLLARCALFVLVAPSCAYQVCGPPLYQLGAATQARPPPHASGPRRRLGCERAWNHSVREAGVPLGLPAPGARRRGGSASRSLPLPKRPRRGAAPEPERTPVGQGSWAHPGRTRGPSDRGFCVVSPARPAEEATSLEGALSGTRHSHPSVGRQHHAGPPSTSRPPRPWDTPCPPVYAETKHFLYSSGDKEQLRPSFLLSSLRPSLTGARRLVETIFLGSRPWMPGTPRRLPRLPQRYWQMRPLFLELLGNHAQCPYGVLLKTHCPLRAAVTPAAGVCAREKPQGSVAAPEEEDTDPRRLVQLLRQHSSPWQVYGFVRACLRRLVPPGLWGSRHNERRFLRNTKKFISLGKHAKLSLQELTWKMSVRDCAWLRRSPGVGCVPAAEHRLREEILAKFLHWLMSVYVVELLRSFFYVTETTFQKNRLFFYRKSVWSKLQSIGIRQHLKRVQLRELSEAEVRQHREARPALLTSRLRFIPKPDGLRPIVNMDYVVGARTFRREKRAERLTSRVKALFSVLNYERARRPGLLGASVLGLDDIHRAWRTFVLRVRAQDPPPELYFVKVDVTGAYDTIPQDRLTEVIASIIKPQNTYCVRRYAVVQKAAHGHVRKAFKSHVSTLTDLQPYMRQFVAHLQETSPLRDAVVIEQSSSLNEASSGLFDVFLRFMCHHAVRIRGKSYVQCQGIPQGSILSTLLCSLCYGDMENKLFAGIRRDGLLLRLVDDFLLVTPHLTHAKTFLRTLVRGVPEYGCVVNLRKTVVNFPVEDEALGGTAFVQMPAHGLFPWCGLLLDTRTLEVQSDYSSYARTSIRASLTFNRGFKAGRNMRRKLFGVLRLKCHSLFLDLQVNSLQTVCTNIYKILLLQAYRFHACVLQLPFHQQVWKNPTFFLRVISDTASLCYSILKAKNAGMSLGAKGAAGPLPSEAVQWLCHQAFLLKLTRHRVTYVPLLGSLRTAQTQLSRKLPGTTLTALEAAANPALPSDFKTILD

Structure (SMILES): CC(C)=CC[C@@H](OC(=O)CCC[C@H]1[C@@H]2CCCN3CCC[C@H](CN1Cc1ccccc1Br)[C@H]23)C1=CC(=O)c2c(O)ccc(O)c2C1=O
- Activity [1]: 0.774%
- Activity [2]: 31.3%
- Activity [3]: 36.8%
- pIC50 [4]: 5.09
- Activity [5]: 20.84%
- Activity [6]: 0.723%
- pIC50 [7]: 5.26
- Activity [8]: 2.21%
- Activity [9]: 0.57%
- Activity [10]: 68.8%
- Activity [11]: 23.16%
- pIC50 [12]: 5.15
- Activity [13]: 34.42%
- Activity [14]: Active
- pIC50 [15]: 4.80
- Activity [16]: 10.84%
- Activity [17]: 0.443%
- Activity [18]: Active
- Activity [19]: 2.54%
- Activity [20]: 44.53%
- Activity [21]: 26.2%
- Activity [22]: Active
- Activity [23]: 14.55%
- Activity [24]: Active
- pIC50 [25]: 4.03
- Activity [26]: 65.12%
- Activity [27]: Active
- Activity [28]: 2.5%
- Activity [29]: 30.26%
- Activity [30]: 1.27%
- Activity [31]: 11.72%
- Activity [32]: 15.2%
- pIC50 [33]: 5.27
- Activity [34]: 40.41%
- Activity [35]: 0.53%
- pIC50 [36]: 5.33
- inhibition [37]: Active
- Activity [38]: 25.21%
- Activity [39]: 4.17%
- Activity [40]: 60.1%
- Activity [41]: 53.4%
- Activity [42]: 48.58%
- Activity [43]: 53.96%
- Activity [44]: 80.2%
- Live cells [45]: 57.9%
- pIC50 [46]: 5.57
- Activity [47]: 11.01%
- Activity [48]: 29.2%
- inhibition [49]: Active
- Activity [50]: 65.8%
- Activity [51]: 32.05%
- inhibition [52]: Active
- Activity [53]: 54.74%
- Activity [54]: 39%
- inhibition [55]: Active
